{"source": "patent US6420558B1", "about": "“Aminopiperidine derivates as integrin αvβ3 antagonists” (Meiji Seika Kaisha, Ltd., priority 1998, dated 2002)", "key": {"GP IIb/IIIa": {"biological_target": "GP IIb/IIIa (Homo sapiens, UniProt P05106+P08514)", "sequence (P08514 32-887 limits assumed)": "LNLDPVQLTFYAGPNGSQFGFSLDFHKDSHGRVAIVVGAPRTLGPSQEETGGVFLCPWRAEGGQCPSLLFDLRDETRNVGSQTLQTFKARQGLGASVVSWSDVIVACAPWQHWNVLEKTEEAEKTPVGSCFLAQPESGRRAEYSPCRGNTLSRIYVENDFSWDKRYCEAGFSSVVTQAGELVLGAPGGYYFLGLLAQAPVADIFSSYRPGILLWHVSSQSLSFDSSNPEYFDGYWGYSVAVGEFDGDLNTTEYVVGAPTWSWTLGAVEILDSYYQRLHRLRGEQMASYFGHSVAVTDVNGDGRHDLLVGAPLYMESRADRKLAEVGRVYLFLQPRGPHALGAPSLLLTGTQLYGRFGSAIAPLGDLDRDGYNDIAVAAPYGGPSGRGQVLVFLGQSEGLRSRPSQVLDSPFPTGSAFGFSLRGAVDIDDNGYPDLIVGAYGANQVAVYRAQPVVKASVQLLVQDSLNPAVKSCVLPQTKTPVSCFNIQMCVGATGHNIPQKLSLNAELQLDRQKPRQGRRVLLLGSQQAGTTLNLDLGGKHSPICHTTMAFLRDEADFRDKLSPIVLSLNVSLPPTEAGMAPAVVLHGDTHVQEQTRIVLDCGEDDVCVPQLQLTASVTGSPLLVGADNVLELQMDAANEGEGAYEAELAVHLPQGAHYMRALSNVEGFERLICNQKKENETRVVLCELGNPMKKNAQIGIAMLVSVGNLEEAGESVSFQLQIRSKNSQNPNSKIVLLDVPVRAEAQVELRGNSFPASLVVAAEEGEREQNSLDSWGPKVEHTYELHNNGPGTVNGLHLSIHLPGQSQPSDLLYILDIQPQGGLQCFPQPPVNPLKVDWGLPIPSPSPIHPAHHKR", "sequence (P08514 891-1039 limits assumed)": "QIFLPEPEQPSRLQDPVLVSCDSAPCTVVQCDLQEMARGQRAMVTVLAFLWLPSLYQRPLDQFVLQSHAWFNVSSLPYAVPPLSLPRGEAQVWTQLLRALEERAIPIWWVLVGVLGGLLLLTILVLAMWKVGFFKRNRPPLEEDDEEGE", "sequence (P05106 27-788)": "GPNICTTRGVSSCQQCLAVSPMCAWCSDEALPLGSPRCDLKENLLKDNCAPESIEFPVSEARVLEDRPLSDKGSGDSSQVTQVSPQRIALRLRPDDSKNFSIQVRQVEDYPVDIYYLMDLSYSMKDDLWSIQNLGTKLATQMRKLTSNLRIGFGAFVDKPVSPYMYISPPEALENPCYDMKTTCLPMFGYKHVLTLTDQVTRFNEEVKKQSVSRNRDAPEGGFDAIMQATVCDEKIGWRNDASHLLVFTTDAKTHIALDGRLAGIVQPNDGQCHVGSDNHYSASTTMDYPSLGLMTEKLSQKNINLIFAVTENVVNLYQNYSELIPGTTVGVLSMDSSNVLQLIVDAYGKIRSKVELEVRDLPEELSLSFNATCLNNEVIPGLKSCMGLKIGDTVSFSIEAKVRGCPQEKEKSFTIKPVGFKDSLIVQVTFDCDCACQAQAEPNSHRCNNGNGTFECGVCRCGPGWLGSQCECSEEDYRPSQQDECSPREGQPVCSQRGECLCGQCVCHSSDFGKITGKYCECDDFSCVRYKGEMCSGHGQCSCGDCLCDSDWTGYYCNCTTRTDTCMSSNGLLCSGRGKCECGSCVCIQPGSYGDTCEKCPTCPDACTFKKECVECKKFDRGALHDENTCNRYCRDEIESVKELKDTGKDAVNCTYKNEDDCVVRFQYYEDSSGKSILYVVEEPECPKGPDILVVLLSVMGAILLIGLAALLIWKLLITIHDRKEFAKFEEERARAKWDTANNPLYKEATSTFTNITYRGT", "assay": "GP IIb/IIIa antagonistic activity (method of Pharmacological Test 2 in WO 94/21599)", "assay_type": "binding", "protocol": "GP IIb/IIIa Antagonistic Activity and Human Platelet Aggregation Inhibitory Activity\nGP IIb/IIIa antagonistic activity was measured for the compounds according to the present invention. The measurement of the GP IIb/IIIa antagonistic activity was carried out according to the method described in Pharmacological Test 2 in WO 94/21599."}, "[1]": {"tested_on": "human vascular smooth muscle cells adhering to immobilized human vitronectin", "assay": "Inhibitory activity against adhesion of human vascular smooth muscle cells to vitronectin", "assay_type": "cell-based", "conditions": "1.5 h; human vitronectin-coated plate, 90 min", "protocol": "Inhibitory Activity Against Adhesion of Human Vascular Smooth Muscle Cells to Vitronectin\nThe adhesion of human vascular smooth muscle cells =+to immobilized human vitronectin was measured in accordance with the method of Liaw et al. (Liaw L, Almeida M, Hart C E, Schwartz S M, and Giachelli C M, Circulation Research, 74 (2), 214-224 (1994)).\nA Dulbecco's phosphate buffer (Dulbecco's PBS(−), Nissui Pharmaceutical Co., Ltd.) solution of human plasma-derived vitronectin (CALBIOCHEM) adjusted to a concentration of 4 μg/ml was first added to wells (50 μl/well) of a microplate (Maxisorp, Nunc), and a reaction for immobilization was allowed to proceed at 4° C. overnight. After washing twice with 150 μl of Dulbecco's phosphate buffer, a Dulbecco's phosphate buffer containing 10 mg/ml of bovine serum albumin (SIGMA) was added, followed by blocking at 37° C. for one hr. The assay plate was washed twice with 150 μl of Dulbecco's phosphate buffer.\nSeparately, human vascular smooth muscle cells cultivated at 37° C. under 5% carbon dioxide in a medium for vascular smooth muscle cells (Clonetics) were separated using a Dulbecco's phosphate buffer containing trypsin-EDTA (GIBCO BRL), washed with Dulbecco's phosphate buffer, and then suspended in a Dulbecco's modified Eagle's basal medium (Nissui Pharmaceutical Co., Ltd.) containing 0.1% bovine serum albumin to a concentration of 5×10^5/ml.\nNext, 50 μl of a Dulbecco's modified Eagle's basal medium containing 10 mg/ml of bovine serum albumin with a medicament added thereto was added to the wells of the human vitronectin-coated assay microplate, followed by pre-cultivation under 5% carbon dioxide at 37° C. for 10 min. Thereafter, 50 μl of the medium with human vascular smooth muscle cells suspended therein was added thereto, and the plate was thoroughly stirred. A reaction was allowed to proceed under 5% carbon dioxide at 37° C. for 90 min. The reaction solution containing non-adherent cells were then removed, followed by washing three times with Dulbecco's phosphate buffer. For the adhered cells, 100 μl of a Dulbecco's phosphate buffer containing 4% paraformaldehyde (Wako Pure Chemical Industries, Ltd.) was added, and immobilization was allowed to proceed at room temperature for 10 min. Next, 100 μl of a Dulbecco's phosphate buffer containing 0.5% Toluidine Blue (Croma) and 4% paraformaldehyde was added, and staining was allowed to proceed at room temperature for 5 min, followed by thorough washing with distilled water. The inside of the wells was then air-dried, and a 1% aqueous sodium dodecylsulfate solution was then added to perform cytolysis. The absorbance of the microplate thus obtained was measured at 595 nm. […] The inhibition was calculated by the following equation. IC50 was determined from a primary regression line of the logarithm of each concentration of the test compound and the logarithm of (100−inhibition)/inhibition. [formula]"}, "[2]": {"biological_target": "T1, integrin α5β1 (fibronectin receptor purified from the human placenta) (Homo sapiens, UniProt P05556+P08648)", "T1 construct": "a fibronectin receptor (protein content: 52.1 μg/ml) purified from the human placenta; from tissue; host or cells: human placenta", "T1 sequence (P08648 42-894 limits assumed)": "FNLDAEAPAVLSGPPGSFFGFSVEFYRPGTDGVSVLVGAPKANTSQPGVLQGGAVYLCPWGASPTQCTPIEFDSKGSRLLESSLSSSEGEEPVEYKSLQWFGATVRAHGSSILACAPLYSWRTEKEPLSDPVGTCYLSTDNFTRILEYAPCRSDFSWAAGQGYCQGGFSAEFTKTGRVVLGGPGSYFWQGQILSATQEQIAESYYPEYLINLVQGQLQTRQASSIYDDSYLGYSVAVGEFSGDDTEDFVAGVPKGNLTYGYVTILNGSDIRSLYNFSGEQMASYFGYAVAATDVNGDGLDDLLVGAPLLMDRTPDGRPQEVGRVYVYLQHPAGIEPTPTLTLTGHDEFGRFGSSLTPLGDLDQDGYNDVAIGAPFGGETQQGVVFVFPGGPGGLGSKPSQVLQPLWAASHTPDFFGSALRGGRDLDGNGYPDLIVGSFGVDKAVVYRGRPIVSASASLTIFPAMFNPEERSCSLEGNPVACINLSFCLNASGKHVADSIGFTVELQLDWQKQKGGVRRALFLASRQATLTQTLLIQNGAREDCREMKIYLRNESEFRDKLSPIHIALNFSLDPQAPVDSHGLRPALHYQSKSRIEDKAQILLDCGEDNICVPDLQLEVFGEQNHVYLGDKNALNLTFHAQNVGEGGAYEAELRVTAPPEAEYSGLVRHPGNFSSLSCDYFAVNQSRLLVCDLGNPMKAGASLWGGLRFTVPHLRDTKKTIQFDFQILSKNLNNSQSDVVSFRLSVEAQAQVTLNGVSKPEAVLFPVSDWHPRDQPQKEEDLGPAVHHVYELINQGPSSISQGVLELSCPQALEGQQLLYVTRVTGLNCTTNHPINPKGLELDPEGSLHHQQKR", "T1 sequence (P08648 895-1049 limits assumed)": "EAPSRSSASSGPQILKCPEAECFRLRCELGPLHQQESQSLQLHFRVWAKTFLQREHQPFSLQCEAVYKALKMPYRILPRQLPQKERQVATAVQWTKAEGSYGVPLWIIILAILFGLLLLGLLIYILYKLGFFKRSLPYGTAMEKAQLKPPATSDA", "T1 sequence (P05556 21-798)": "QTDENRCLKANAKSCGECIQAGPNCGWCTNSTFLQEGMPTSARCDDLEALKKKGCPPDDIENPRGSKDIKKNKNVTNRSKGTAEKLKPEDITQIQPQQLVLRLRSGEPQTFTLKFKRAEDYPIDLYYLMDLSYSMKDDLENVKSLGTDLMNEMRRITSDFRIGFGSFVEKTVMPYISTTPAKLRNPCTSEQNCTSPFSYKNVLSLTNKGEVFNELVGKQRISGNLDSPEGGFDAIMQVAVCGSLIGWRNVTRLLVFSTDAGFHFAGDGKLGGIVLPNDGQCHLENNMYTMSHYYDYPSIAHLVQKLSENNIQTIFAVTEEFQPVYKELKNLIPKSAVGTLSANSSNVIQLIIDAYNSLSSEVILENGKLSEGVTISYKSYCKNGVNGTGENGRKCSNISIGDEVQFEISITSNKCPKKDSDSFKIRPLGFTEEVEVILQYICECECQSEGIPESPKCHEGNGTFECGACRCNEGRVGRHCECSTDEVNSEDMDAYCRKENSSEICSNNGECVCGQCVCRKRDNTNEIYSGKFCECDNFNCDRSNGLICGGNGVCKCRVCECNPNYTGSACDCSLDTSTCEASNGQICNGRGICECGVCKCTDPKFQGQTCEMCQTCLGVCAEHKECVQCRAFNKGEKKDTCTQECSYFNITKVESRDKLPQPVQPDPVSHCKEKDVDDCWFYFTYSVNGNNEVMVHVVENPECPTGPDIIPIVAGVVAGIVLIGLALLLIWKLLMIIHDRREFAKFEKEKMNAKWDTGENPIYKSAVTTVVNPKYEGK", "assay": "α5β1 binding assay (fibronectin-fibronectin receptor binding assay)", "conditions": "fibronectin binding to human placenta fibronectin receptor; read-out: α5β1 Binding inhibitory activity", "protocol": "Integrin α5β1 antagonistic activity (lethality) was measured for the compounds according to the present invention in a fibronectin-fibronectin receptor binding assay system in accordance with the method of Kouns et al. (W. C. Kouns, D. Kirchhofer, P. Hadvary, A. Edenhofer, T. Weller, G. Pfenninger, H. R. Baumgartner, L. K. Jennings, and B. Steiner, Blood, 80, 2539-2547 (1992)).\nSpecifically, a fibronectin receptor (protein content: 52.1 μg/ml) purified from the human placenta by the method of Pytela et al. (R. Pytela, M. D. Pierschbacher, S. Argraves, S. Suzuki, and E. Ruoslahti, Method in Enzymology, 144, 475-489 (1987)) was diluted 25 times with TBS (20 mM Tris-HCl, 150 mM NaCl, 1 mM CaCl2, 1 mM MgCl2, pH 7.4), and distributed and coated on wells (50 μl/well) of a plate (Maxisorp, Nunc, 96 well Immuno Plate). The plate was then allowed to stand at 4° C. for one day, washed twice with TBS (200 μl/well), and then subjected to blocking with TBS (150 μl/well) containing 3% skim milk (DIFCO) at 4° C. overnight. After washing twice with TBS (200 μl/well) containing 0.05% Tween-20 and then washing twice with TBS (200 μl/well), purification was carried out according to the method of E. Engvall et al. (E. Engvall, E. Ruoslahti, and E. J. Miller, J. Exp. Med., 147, 1584-1595 (1978)), and 50 […] of fibronectin adjusted to 0.2 μg/ml by the addition of TBS (TBS-Tween) containing 0.01% Tween-20 was mixed with 50 μl of each test compound adjusted to each concentration in the wells, and a reaction was allowed to proceed at room temperature for 3 hr. After the completion of the reaction, the wells were washed five times with TBS-Tween. A solution prepared by diluting a peroxidase-labeled fibronectin antibody (CAPPEL) 500 times with TBS-Tween was added in an amount of 50 μl per well, and a reaction was allowed to proceed at room temperature for 1.5 hr. After washing five times with TBS-Tween (200 μl/well), ABTS (SIGMA) adjusted to 1 mg/ml by the addition of a ten-fold diluted POD-buffer (ZYMED) was added in an amount of 50 μl/well, and a reaction was allowed to proceed for 5 to 10 min. A 0.1 M citric acid buffer (pH 4.3) containing 0.05% NaN3 was added in an amount of 50 μl/well to stop the reaction, followed by the measurement of the absorbance at 415 nm with a microplate reader (MTP 32, Corona Electric) (reference: 675 nm). The total binding was defined as the absorbance after a reaction using 50 μl of TBS-Tween instead of the test compound, and the non-specific binding (100% inhibition) was defined as the absorbance after a reaction using 50 μl of TBS-Tween containing 2×10^−3 M RGDS. The inhibition was calculated by the following equation: [formula]\nIC50 was determined from a primary regression line of the logarithm of each concentration of the test compound and the logarithm of (100−inhibition)/inhibition."}, "[3]": {"assay": "Acute toxicity test in mice", "assay_type": "in vivo", "conditions": "intravenously administered to three mice at a dose of 50 mg/kg", "protocol": "The compound of Example 52 was intravenously administered to three mice at a dose of 50 mg/kg."}}, "data": [{"smiles": "O=C(NC[C@H](NS(=O)(=O)c1ccccc1)C(=O)O)c1ccc(N2CCC(NC3=NCCCN3)CC2)c(F)c1", "note": "[Example 52, (2S)-Benzenesulfonylamino-3-[3-fluoro-4-{4-(1,4,5,6-tetrahydropyrimidin-2-ylamino)piperidin-1-yl}-benzoylamino]propionic acid]", "values": [{"measurement": "IC50", "setting": "GP IIb/IIIa", "value": "≤ 0.001", "unit": "µM"}, {"measurement": "IC50", "setting": "[1]", "value": "≤ 0.07", "unit": "µM"}, {"measurement": "IC50", "setting": "[2]", "value": 0.33, "unit": "µM"}, {"measurement": "survival in acute toxicity test", "setting": "[3]", "value": "all the mice survived"}, {"measurement": "change in weight in acute toxicity test", "setting": "[3]; compared with solvent group", "value": "the same as a group of mice to which only a solvent had been administrered"}]}]}
